Like-named read-outs stand apart in the source and are kept apart here.
Key:
[1] = test system: MCF7 cells; assay: In vitro cell proliferation assays (Examples 902 and 903), MCF7; assay type: cell-based; settings: Homo sapiens
Procedure: Efficacy of estrogen receptor modulator compounds and chemotherapeutic compounds are measured by a cell proliferation assay employing the following protocol (Mendoza et al (2002) Cancer Res. 62:5485-5488).
The CellTiter-Glo® Luminescent Cell Viability Assay is a homogeneous method to determine the number of viable cells in culture based on quantitation of the ATP present, which signals the presence of metabolically active cells. The CellTiter-Glo® Assay is designed for use with multiwell plate formats, making it ideal for automated high-throughput screening (HTS), cell proliferation and cytotoxicity assays. The homogeneous assay procedure involves adding a single reagent (CellTiter-Glo® Reagent) directly to cells cultured in serum-supplemented medium. Cell washing, removal of medium or multiple pipetting steps are not required. The Cell Titer-Glo® Luminescent Cell Viability Assay, including reagents and protocol are commercially available (Promega Corp., Madison, Wis., Technical Bulletin TB288).
The assay assesses the ability of compounds to enter cells and inhibit cell proliferation. The assay principle is based on the determination of the number of viable cells present by quantitating the ATP present in a homogenous assay where addition of the Cell TiterGlo® reagent results in cell lysis and generation of a luminescent signal through the luciferase reaction. The luminescent signal is proportional to the amount of ATP present.
Procedure: Day 1—Seed Cell Plates (384-well black, clear bottom, microclear, TC plates with lid from Falcon #353962), Harvest cells, Seed cells at 1000 cells per 54 μl per well into 384 well Cell Plates for 3 days assay. Cell Culture Medium: RPMI or DMEM high glucose, 10% Fetal Bovine Serum, 2 mM L-Glutamine, P/S. Incubate 0/N (overnight) at 37° C., 5% CO2.
Day 2—Add Drug to Cells, Compound Dilution, DMSO Plates (serial 1:2 for 9 points). Add 20 μl of compound at 10 mM in the 2nd column of 96 well plate. Perform serial 1:2 across the plate (10 μl+20 μl 100% DMSO) for a total of 9 points using Precision Media Plates 96-well conical bottom polypropylene plates from Nunc (cat.#249946) (1:50 dilution). Add 147 μl of Media into all wells. Transfer 3 μl of DMSO+compound from each well in the DMSO Plate to each corresponding well on Media Plate using Rapidplate® (Caliper, a Perkin-Elmer Co.). For 2 drug combination studies, transfer one drug 1.5 μl of DMSO+compound from each well in the DMSO Plate to each corresponding well on Media Plate using Rapidplate. Then, transfer another drug 1.5 μl to the medium plate.
Drug Addition to Cells, Cell Plate (1:10 dilution): Add 6 μl of media+compound directly to cells (54 μl of media on the cells already). Incubate 3 days at 37° C., 5% CO2 in an incubator that will not be opened often.
Day 5—Develop Plates, Thaw Cell Titer Glo Buffer at room temperature: Remove Cell Plates from 37° C. and equilibrate to room temperature for about 30 minutes. Add Cell Titer-Glo® Buffer to Cell Titer-Glo® Substrate (bottle to bottle). Add 30 μl Cell Titer-Glo® Reagent (Promega cat.# G7572) to each well of cells. Place on plate shaker for about 30 minutes. Read luminescence on Analyst HT Plate Reader (half second per well).
Cell viability assays and combination assays: Cells were seeded at 1000-2000 cells/well in 384-well plates for 16 h. On day two, nine serial 1:2 compound dilutions were made in DMSO in a 96 well plate. The compounds were further diluted into growth media using a Rapidplate® robot (Zymark Corp., Hopkinton, Mass.). The diluted compounds were then added to quadruplicate wells in 384-well cell plates and incubated at 37° C. and 5% CO2. After 4 days, relative numbers of viable cells were measured by luminescence using Cell Titer-Glo® (Promega) according to the manufacturer's instructions and read on a Wallac Multilabel Reader® (PerkinElmer, Foster City). EC50 values were calculated using Prism® 4.0 software (GraphPad, San Diego). […]

[2] = target: T1, estrogen receptor alpha (ESR1) (Homo sapiens, UniProt P03372); assay: Breast Cancer Cell ERa High Content Fluorescence Imaging Degradation Assay (Example 901); assay type: cell-based; settings: Table 1a; MCF7 breast cancer cells, 4 hours; plateau of the maximal effect; DMSO and Fulvestrant define 0% and 100% changes in ESR1
T1 construct: endogenous in cells; host or cells: MCF7 breast cancer cells
T1 sequence (P03372 1-595): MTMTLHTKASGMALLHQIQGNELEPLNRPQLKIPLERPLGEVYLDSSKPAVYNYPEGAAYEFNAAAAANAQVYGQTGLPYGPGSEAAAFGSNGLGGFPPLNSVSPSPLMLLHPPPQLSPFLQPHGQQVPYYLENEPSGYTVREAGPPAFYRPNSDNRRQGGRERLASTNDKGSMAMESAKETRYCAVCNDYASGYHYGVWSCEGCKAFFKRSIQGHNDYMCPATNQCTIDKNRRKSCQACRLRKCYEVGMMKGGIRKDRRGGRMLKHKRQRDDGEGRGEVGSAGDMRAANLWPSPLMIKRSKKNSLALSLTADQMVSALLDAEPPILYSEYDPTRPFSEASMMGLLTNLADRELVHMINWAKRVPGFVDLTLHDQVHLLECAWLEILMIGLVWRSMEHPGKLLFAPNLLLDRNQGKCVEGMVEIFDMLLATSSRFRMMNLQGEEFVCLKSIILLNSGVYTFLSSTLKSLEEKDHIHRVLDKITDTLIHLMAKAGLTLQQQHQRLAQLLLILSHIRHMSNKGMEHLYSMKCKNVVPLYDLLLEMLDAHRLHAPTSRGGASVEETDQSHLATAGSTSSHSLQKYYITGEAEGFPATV
Procedure: MCF7 breast cancer cells were seeded on day 1 at a density of 10,000 cells per well in 384 well poly-lysine coated tissue culture plate (Greiner # T-3101-4), in 50 μL/well RPMI (phenol red free), 10% FBS (Charcoal stripped), containing L-glutamine. On day 2, compounds were prepared at 2 compound source concentrations: 100 μM and 1 μM (ultimately to give 2 overlapping titration curves), in a Labcyte low dead volume plate, 10 μL/well, and 10 μL of DMSO in designated wells for backfill, and 5 μM Fulvestrant (control compound) in designated wells. Compounds and controls were dispensed using a Labcyte Echo acoustic dispenser to dispense compounds with a predefined serial dilution (1.8×, 10 point, in duplicate) and appropriate backfill and control compounds (final total volume transferred was 417.5 nL and compound dispense volume ranges from 2.5 nL to 417.5 nL; 0.84% DMSO (v/v) final), ultimately producing a concentration range from 0.05 nM to 835 nM. Cell plates were incubated at 37° C., for 4 hours. Fixation and permeabilization were carried out using a Biotek EL406 plate washer and dispenser as follows. Cells were fixed by addition of 15 μL of 16% paraformaldehyde (Electron Microscopy Sciences #15710-S) directly to the 50 μL cell culture medium in each well using the peristaltic pump 5 μL cassette on a Biotek EL406 (final concentration of formaldehyde was 3.7% w/v). Samples were incubated 30 minutes. Well contents was aspirated and 50 μL/well of Phosphate Buffered Saline (PBS) containing 0.5% w/v bovine serum albumen, 0.5% v/v Triton X-100 (Antibody Dilution Buffer) was added to each well. Samples were incubated for 30 minutes. Well contents were aspirated and washed 3 times with 100 μL/well of PBS. Immunofluorescence staining of estrogen receptor alpha (ESR1) was carried out using a Biotek EL406 plate washer and dispenser as follows. The well supernatant was aspirated from the wells and 25 μL/well of anti-ESR1 mAb (F10) (Santa Cruz sc-8002) diluted 1:1000 in Antibody Dilution Buffer was dispensed. Samples were incubated for 2 hours at room temperature. Samples were washed 4 times with 100 μL/well of PBS. 25 uL/well of secondary antibody solution (Alexafluor 488 conjugate anti-mouse IgG (LifeTechnologies #A21202) diluted 1:1000 and Hoechst 33342 1 μg/ml diluted in Antibody Dilution Buffer) were dispensed into each well. Samples were incubated for 2 hours at room temperature. Samples were washed 3 times with 100 μL/well of PBS using a Biotek EL406. Quantitative fluorescence imaging of ESR1 was carried out using a Cellomics Arrayscan V (Thermo). Fluorescence images of the samples (Channel 1: XF53 Hoechst (DNA stain); Channel 2: XF53 FITC (ESR1 stain)) were acquired using a Cellomics VTI Arrayscan using the Bioapplication “Compartmental Analysis” using the auto-exposure (based on DMSO control wells) setting “peak target percentile” set to 25% target saturation for both channels. Channel 1 (DNA stain) was used to define the nuclear region (Circ). Measurements of “Mean_CircAvgIntCh2”, which is the Alexafluor 488 fluorescence intensity (ESR1) within the nuclear region, was measured on a per cell basis and averaged over all the measured cells. Data analysis was carried out using Genedata Screener Software, with DMSO and 5 nM Fulvestrant treated samples being used to define the 0% and 100% changes in ESR1. The “Robust Fit” method was used to define the inflexion point of curve (EC50) and the plateau of the maximal effect (Sinf). Degradation data for exemplary Formula I compounds is reported as ER-alpha MCF7 HCS Sinf(%) values in Table 1.

[3] = MCF7, Table 1a, read-out: ER-alpha MCF7 HCS (EC50)
[4] = MCF7, Table 2, Comparator compounds, read-out: ER-alpha MCF7 HCS EC50

Compound	EC50 [1, 3] [pM]	ER-alpha MCF7 HCS (S inf) [2] [%]	EC50 [1, 4] [pM]
C[C@@H]1Cc2c([nH]c3ccccc23)[C@@H](c2c(F)cc([C@@H](F)C3CN(CCCF)C3)cc2F)N1CC(F)(F)CO (single isomer, unassigned) [Compound 104]	17	−99.99	
C[C@@H]1Cc2c([nH]c3ccccc23)[C@@H](c2c(F)cc([C@H](F)C3CN(CCCF)C3)cc2F)N1CC(F)(F)CO (single isomer, unassigned) [Compound 105]	21	−97.71	
C[C@@H]1Cc2c([nH]c3ccc(F)cc23)[C@@H](c2c(F)cc([C@H](O)C3CN(CCCF)C3)cc2F)N1CC(F)(F)CO (single isomer, unassigned) [Compound 114]	35	−100.60	
C[C@@H]1Cc2c([nH]c3ccccc23)[C@@H](c2c(F)cc(NC3CN(CCCF)C3)cc2F)N1CC(F)(F)CO [Comparator compound A, 3-[(1R,3R)-1-[2,6-difluoro-4-[[1-(3-fluoropropyl)azetidin-3-yl]amino]phenyl]-3-methyl-1,3,4,9-tetrahydropyrido[3,4-b]indol-2-yl]-2,2-difluoro-propan-1-ol, reference compound]			27
C[C@@H]1Cc2c([nH]c3ccccc23)[C@@H](c2ccc([C@@H](O)C3CN(CCCF)C3)cc2)N1CC(C)(C)F [Comparator compound B, (S)-(4-((1R,3R)-2-(2-fluoro-2-methylpropyl)-3-methyl-2,3,4,9-tetrahydro-1H-pyrido[3,4-b]indol-1-yl)phenyl)(1-(3-fluoropropyl)azetidin-3-yl)methanol, reference compound]			65
C[C@@H]1Cc2c([nH]c3ccccc23)[C@@H](c2ccc([C@H](O)C3CN(CCCF)C3)cc2)N1CC(C)(C)F [Comparator compound C, (R)-(4-((1R,3R)-2-(2-fluoro-2-methylpropyl)-3-methyl-2,3,4,9-tetrahydro-1H-pyrido[3,4-b]indol-1-yl)phenyl)(1-(3-fluoropropyl)azetidin-3-yl)methanol, reference compound]			120
C[C@@H]1Cc2c([nH]c3ccccc23)[C@@H](c2c(F)cc([C@@H](F)C3CN(CCCF)C3)cc2F)N1CC(C)(C)F [Compound 102, (1R,3R)-1-(2,6-difluoro-4-((S)-fluoro(1-(3-fluoropropyl)azetidin-3-yl)methyl)phenyl)-2-(2-fluoro-2-methylpropyl)-3-methyl-2,3,4,9-tetrahydro-1H-pyrido[3,4-b]indole]	137		

Continued, values first:

EC50 [1, 3] [pM]	ER-alpha MCF7 HCS (S inf) [2] [%]	EC50 [1, 4] [pM]	Compound
65	−100.58		C[C@@H]1Cc2c([nH]c3ccc(F)cc23)[C@@H](c2c(F)cc([C@@H](O)C3CN(CCCF)C3)cc2F)N1CC(F)(F)CO (single isomer, unassigned) [Compound 115]
68	−98.21		C[C@@H]1Cc2c([nH]c3ccccc23)[C@@H](c2c(F)cc([C@H](O)C3CN(CCCF)C3)cc2F)N1CC(F)F (single isomer, unassigned) [Compound 121]
35	−98.05		C[C@@H]1Cc2c([nH]c3ccccc23)[C@@H](c2c(F)cc([C@@H](O)C3CN(CCCF)C3)cc2F)N1CC(F)F (single isomer, unassigned) [Compound 122]
7640	−95.59		C[C@H]1Cc2c([nH]c3c(F)cccc23)[C@H](c2c(F)cc([C@H](O)C3CN(CCCF)C3)cc2F)N1CC(F)(F)CO (single isomer, unassigned) [Compound 131]
9700	−91		C[C@H]1Cc2c([nH]c3c(F)cccc23)[C@H](c2c(F)cc([C@@H](O)C3CN(CCCF)C3)cc2F)N1CC(F)(F)CO (single isomer, unassigned) [Compound 132]
310			C[C@@H]1Cc2c([nH]c3ccccc23)[C@@H](c2c(F)cc([C@@H](O)C3CN(CCCF)C3)cc2F)N1C[C@H](F)CO (single isomer, unassigned) [Compound 139]

— patent US20170362228A1, “TETRAHYDRO-PYRIDO[3,4-b]INDOLE ESTROGEN RECEPTOR MODULATORS AND USES THEREOF” (Genentech, Inc., priority 2016, published 2017)
